# Assay results as given in patent publication US11802108B2, “Compounds for the modulation of cyclophilins function” (The University Court of The University of Edinburgh, priority 2018, dated 2023).
# Structures can show the parent of a compound that is named as a salt.
# Experiments:
# [1] = biological target: T1, CypA (Homo sapiens (Human), UniProt P62937); assay: Isothermal titration calorimetry (ITC) binding to CypA; conditions: 25° C.
# Method: All ITC experiments for the ester series compounds were carried out at 25° C. on a MicroCal Auto iTC200 (GE Healthcare) instrument. The buffer used in the titrations of the compounds belonging to the ester series was 50 mM phosphate buffer, pH 6.5 and the concentration of DMSO was 2% v/v for all the compounds, unless otherwise stated in Table 51. Final compound solutions were heated to 65° C. and/or sonicated prior to the experiment. Each experiment consisted of an initial injection of 0.4 μL followed by nineteen 2 μL injections and in most of cases for these compounds, the “continue injections” protocol was used leaving the cell intact and performing a second series of titrations using the above protocol to achieve saturation. Control experiments were performed, where each compound was titrated into buffer and when small amount of heat was detected due to heat of dilution, it was subtracted when processing the data using a linear fit method. In all cases the first injection was omitted from the data processing. All data were analysed using the MicroCal PEAQ-ITC Analysis software.
# The buffer used for these titrations was: PBS, 0.05% v/v P20 surfactant, 50 μM EDTA in presence of 2% v/v EtOH and the pH was set to 7.4.
# [2] = biological target: T1, CypA; assay: X-ray co-crystal structure with CypA; on CypA X-ray co-crystal: key: Y: observed in cocrystal; N: not observed in cocrystal; format: binding; conditions: for CypA X-ray co-crystal: apo CypA crystals soaked with 5 mM ligand; for binding mode in co-crystal structure of CypA: FIG. 1
# Method: Purified and his-tag-cleaved CypA was buffer-exchanged into PBS and concentrated to ˜29 mg ml^−1. For crystallisation 1 μL of protein was mixed with an equal volume of the well solution, consisting of 100 mM Tris-HCl pH8.0 and 20-22% v/v PEG 8000, and crystal formation came about after equilibration overnight in 6° C. by vapour diffusion using the hanging drop method over 1 mL of the same well solution. Apo CypA crystals were soaked overnight into different ligand solution consisting of 100 mM Tris-HCl pH 8.0, 35% w/v PEG 8000, 5% v/v Glycerol, 5% v/v DMSO and 5 mM ligand, before flash frozen into liquid nitrogen. X-ray data were collected at the Diamond synchrotron-radiation facility in Oxford-shire, England at 100K. Structures were solved by molecular replacement using DIMPLE from the CCP4i suite. Modelled structures were visualised and manually adjusted as needed using Coot10 and further refined using REFMAC5 from CCP4i.
# FIG. 1A summarises the mode of binding of certain prior-art urea small molecule Cyp inhibitors.
# [3] = biological target: T1, CypA; assay: Surface plasmon resonance (SPR) binding to His-CypA; conditions: 25° C., triplicate
# Method: (§1) SPR measurements were performed on a BIAcore T200 instrument (GE Healthcare). Ni^2+-nitrilotriacetic acid (NTA) sensor chips, 1-ethyl-3-(3-[…]) carbodiimide hydrochloride (EDC) and Nhydroxysuccinimide (NHS) were purchased from GE Healthcare.
# (§2) Pure His-cyclophilins were immobilized and covalently stabilized on the NTA sensor chip according to the protocol described in Thermo-kinetic analysis space expansion for cyclophilin-ligand interactions—identification of a new nonpeptide inhibitor using Biacore T200.
# (§3) Single cycle kinetic titration binding experiments were performed using SPR in triplicate at 25° C. […] The sensor surface was regenerated between experiments by dissociating any formed complex in running buffer for at least 1,200 seconds.
# (§4) Kinetic titration binding experiments were performed in triplicate at 25° C. […] The sensor surface was regenerated between experiments by dissociating any formed complex in running buffer for at least a further 600 seconds.
# [4] = biological target: CypB (Homo sapiens (Human), UniProt P23284); assay: Surface plasmon resonance (SPR) binding to His-CypB; conditions: 25° C., triplicate
# Method: as §3, §4
# [5] = biological target: CypD (Homo sapiens (Human), UniProt P30405); assay: Surface plasmon resonance (SPR) binding to His-CypD; conditions: 25° C., triplicate
# Method: as §1, §2, §3, §4
# [6] = tested on: MDA-MB-231 cells; assay: Growth inhibition (GI50) of MDA-MB-231 cells, IncuCyte imaging; format: cell-based; conditions: MDA-MB-231, 120 hours imaging
# Method: (§5) The latter medium with 2000 U/mL IL-2 was used for NK92 cell killing assays.
# (§6) To determine the direct effect of the compounds on cell proliferation, cells were seeded at a density of 500 cells per well in cell culture medium in 384-well cell culture plates and allowed to adhere overnight (about 16 hours), incubated in a humidified atmosphere with 5% CO2. Subsequently, cell culture medium was refreshed, supplemented with Draq 7 (3 μM final concentration) and test compound at the indicated concentrations with three wells being treated for each condition tested. Cells were then returned to the cell culture incubator and imaged with a 10× objective every 3 hours for 120 hours using an IncuCyte ZOOM microscope from Essen Bioscience.
# (§7) Using the IncuCyte ZOOM software, custom image analysis procedures were developed and applied for each cell line to determine cell confluency, cell number and number of dead cells over the time course of the experiment.
# (§8) Statistical analyses in cell viability assays to compare the effect of compound treatment to treatment with vehicle were performed using GraphPad Prism 6 (2-way ANOVA with Bonferroni correction post hoc).
# [7] = tested on: MDA-MB-231 cells; assay: Cytotoxicity (cell death, Draq7) in MDA-MB-231 cells; format: cell-based
# Method: as §5, §6, §7, §8
# [8] = tested on: IMR-90 cells; assay: Cytotoxicity (cell death, Draq7) in IMR-90 cells; format: cell-based
# Method: as §5, §6, §7, §8
# [9] = tested on: MDA-MB-231 cells in presence of NK92 cells; assay: NK92 immune cell killing of MDA-MB-231 cancer cells; format: cell-based; conditions: with NK92 cells
# Method: as §5
# (§9) NK92 cells were then added at a density of 1000 cells per well and 10 μM test compound was added. Cells were imaged with a 10× objective every 3 hours for 120 hours using an IncuCyte ZOOM microscope from Essen Bioscience.
# (§10) Apoptotic fraction of the population (number of nuclei with co-localized red and green fluorescence divided by total number of red nuclei in the population) and fold increase in number of red nuclei were determined at various time points.
# [10] = tested on: NK92 cells; assay: Proliferation of NK92 cells; format: cell-based
# Method: as §5, §9, §10
# T1 sequence (P62937 whole entry): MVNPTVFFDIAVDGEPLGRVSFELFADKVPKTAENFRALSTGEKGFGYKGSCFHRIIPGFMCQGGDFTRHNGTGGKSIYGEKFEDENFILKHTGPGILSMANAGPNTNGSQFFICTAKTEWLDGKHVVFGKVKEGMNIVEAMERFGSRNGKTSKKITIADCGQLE
# Chain of CypD (P30405 30-207): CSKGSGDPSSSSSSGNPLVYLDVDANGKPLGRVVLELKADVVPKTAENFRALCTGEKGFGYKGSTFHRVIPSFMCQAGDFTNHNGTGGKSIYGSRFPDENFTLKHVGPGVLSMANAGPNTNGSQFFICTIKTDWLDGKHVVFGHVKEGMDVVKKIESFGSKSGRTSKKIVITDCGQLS
# Chain of CypB (P23284 34-216): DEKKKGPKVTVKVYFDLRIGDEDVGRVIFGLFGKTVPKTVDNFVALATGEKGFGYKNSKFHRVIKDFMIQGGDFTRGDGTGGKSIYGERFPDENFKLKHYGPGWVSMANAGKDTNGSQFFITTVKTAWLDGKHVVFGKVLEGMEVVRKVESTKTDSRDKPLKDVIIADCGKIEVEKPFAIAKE
Kd [1] [µM],CypA X-ray co-crystal [2],Structure (SMILES),further results
0.3 ± 0.08,N,"CCOC(=O)CCn1cc(CN(Cc2ccc(N)cc2)C(=O)NCC(=O)N2CCCC2c2ccccc2Br)nn1.Cl (stereo not shown) [Compound 6, Ethyl 3-[4-({[(4-aminophenyl)methyl]({2-[2-(2-bromophenyl)pyrrolidin-1-yl]-2-oxoethyl}carbamoyl)amino}methyl)-1H-1,2,3-triazol-1-yl]propanoatehydrochloride]",–
1.1 ± 0.4,N,"Cl.Cn1cc(CN(Cc2ccc(N)cc2)C(=O)NCC(=O)N2CCCC2c2ccccc2Cl)nn1 (stereo not shown) [Compound 8, 1-[(4-aminophenyl)methyl]-3-{2-[2-(2-chlorophenyl)pyrrolidin-1-yl]-2-oxoethyl}-1-[(1-methyl-1H-1,2,3-triazol-4-yl)methyl]urea hydrochloride]",–
~25,N,"CCN(Cc1ccc(N)cc1)C(=O)NCC(=O)N1CCCC1c1ccccc1Br.Cl (stereo not shown) [Compound 10, 1-[(4-aminophenyl)methyl]-3-{2-[2-(2-bromophenyl)pyrrolidin-1-yl]-2-oxoethyl}-1-ethylurea hydrochloride]",–
200 ± 5,Y,"CCOC(=O)CNC(=O)N(CC)Cc1ccc(N)cc1.Cl [Compound 12, Ethyl 2-({[(4-aminophenyl)methyl](ethyl)carbamoyl}amino)acetate hydrochloride]",binding mode in co-crystal structure of CypA [2]: type-I binding mode
990 ± 20,Y,"CCOC(=O)CNC(=O)N(CC#N)Cc1ccc(N)cc1.Cl [Compound 13, Ethyl 2-({[(4-aminophenyl)methyl](cyanomethyl)carbamoyl}amino)acetate hydrochloride]",–
139 ± 4,N,"CCOC(=O)CNC(=O)N(Cc1ccc(N)cc1)Cc1nnn[nH]1.Cl [Compound 14, Ethyl 2-({[(4-aminophenyl)methyl][(1H-1,2,3,4-tetrazol-5-yl)methyl]carbamoyl}amino)acetate hydrochloride]",–
266 ± 3,Y,"CCCN(Cc1ccc(N)cc1)C(=O)NCC(=O)OCC [Compound 16, Ethyl 2-({[(4-aminophenyl)methyl](propyl)carbamoyl}amino)acetate]",–
–,Y,"CCOC(=O)CNC(=O)N(Cc1ccc(N)cc1)CC1CC1.Cl [Compound 17, Ethyl 2-({[(4-aminophenyl)methyl](cyclopropylmethyl)carbamoyl}amino)acetate hydrochloride]",–
135 ± 6,Y,"CCOC(=O)CNC(=O)N(Cc1ccc(N)cc1)Cc1cn(C)nn1.Cl [Compound 18, Ethyl 2-({[(4-aminophenyl)methyl][(1-methyl-1H-1,2,3-triazol-4-yl)methyl]carbamoyl}amino)acetate hydrochloride]",–
184 ± 13,Y,"CCOC(=O)CNC(=O)N(Cc1ccc(N)cc1)Cc1nnn(C)n1.Cl [Compound 19, Ethyl 2-({[(4-aminophenyl)methyl][(2-methyl-2H-1,2,3,4-tetrazol-5-yl)methyl]carbamoyl}amino)acetate hydrochloride]",binding mode in co-crystal structure of CypA [2]: type-II binding mode
> 1000,Y,"C#CCN(Cc1ccc(N)cc1)C(=O)NCC(=O)OCC [Compound 22, Ethyl 2-({[(4-aminophenyl)methyl](prop-2-yn-1-yl)carbamoyl}amino)acetate]",–

# Continued, compound first:
Structure (SMILES),Kd [1] [µM],CypA X-ray co-crystal [2],further results
"CCOC(=O)CNC(=O)N(CC)Cc1ccc2c(c1)[C@H]1CC(N2)[C@H](O)CO1 (stereo in doubt) [Compound 23, Ethyl 2-{[ethyl({[(1R,9S,10S)-10-hydroxy-12-oxa-8-azatricyclo[7.3.1.0^2,7]trideca-2,4,6-trien-4-yl]methyl})carbamoyl]amino}acetate hydrochloride]",700 ± 235,N,–
"C#CCN(Cc1ccc(N)cc1)C(=O)NCC(=O)N1CCCC1c1ccccc1Br.Cl (stereo not shown) [Compound 1, 1-[(4-aminophenyl)methyl]-3-{2-[2-(2-bromophenyl)pyrrolidin-1-yl]-2-oxoethyl}-1-(prop-2-yn-1-yl)urea hydrochloride]",2 ± 1,Y,Kd [3]: 3.2 ± 1.3 µM; Kd [4]: 1.4 ± 0.4 µM; Kd [5]: 0.2 ± 0.1 µM; GI50 ([6]; Homo sapiens): 5.1 ± 0.9 µM; Toxicity MDA-MB-231 @10 μM [7]: N; Toxicity IMR-90 @10 μM [8]: N; Apoptotic fraction of the MDA-MB-231 population in the presence of NK92 cells after 72 h @ 10 μM [9]: 0.64 ± 0.03; Fold increase MDA-MB-231 cells in presence of NK92 cells after 72 h @ 10 μM [9]: 2.0 ± 0.3; Fold increase in NK92 cells after 72 h @ 10 μM [10]: 4.3 ± 0.7
"CCOC(=O)Cn1cc(CN(Cc2ccc(N)cc2)C(=O)NCC(=O)N2CCCC2c2ccccc2Br)nn1.Cl (stereo not shown) [Compound 5, Ethyl 2-[4-({[(4-aminophenyl)methyl]({2-[2-(2-bromophenyl)pyrrolidin-1-yl]-2-oxoethyl}carbamoyl)amino}methyl)-1H-1,2,3-triazol-1-yl]acetate hydrochloride]",~3,N,Kd [3]: 4.3 ± 1 µM; Kd [4]: 1.9 ± 0.9 µM; Kd [5]: 1 ± 0.4 µM
"CCN(Cc1ccc(N)cc1)C(=O)NCC(=O)N1CCCC1c1ccccc1 (stereo not shown) [Compound 9, 1-[(4-aminophenyl)methyl]-3-{2-[2-(phenyl)pyrrolidin-1-yl]-2-oxoethyl}-1-ethylurea]",35 ± 5,Y,–
"Cl.Nc1ccc(CN(CC2CC2)C(=O)NCC(=O)N2CCCC2c2ccccc2Br)cc1 (stereo not shown) [Compound 11, 1-[(4-aminophenyl)methyl]-3-{2-[2-(2-bromophenyl)pyrrolidin-1-yl]-2-oxoethyl}-1-(cyclopropylmethyl)urea]",~10,Y,–
"CCOC(=O)[C@H](CCSC)NC(=O)N(CC)Cc1ccc(N)cc1 [Compound 15, Ethyl (2S)-2-({[(4-aminophenyl)methyl](ethyl)carbamoyl}amino)-4-(methylsulfanyl)butanoate hydrochloride]",35 ± 5,Y,–
"C/C=C/CC(C)C(O)C1C(=O)NC(CC)C(=O)N(C)CC(=O)N(C)C(CC(C)C)C(=O)NC(C(C)C)C(=O)N(C)C(CC(C)C)C(=O)NC(C)C(=O)NC(C)C(=O)N(C)C(CC(C)C)C(=O)N(C)C(CC(C)C)C(=O)N(C)C(C(C)C)C(=O)N1C (stereo not shown) [CsA, Cyclosporin A, reference compound]",–,–,GI50 [6]: 6.2 ± 0.8 µM; Apoptotic fraction of the MDA-MB-231 population in the presence of NK92 cells after 72 h @ 10 μM [9]: 0.38 ± 0.01
